The test system of assay [1] is CHO. Description: Cytotoxicity against CHO cells after 48 hrs by MTT assay. The class given is cell-based. The note with it: Cricetulus griseus.
In assay [2] the test system is L1210. The assay is described as follows: Cytotoxicity against mouse L1210 ATCC CCL 219 cells after 48 hrs by MTT assay. The conditions noted are these: L1210, 48 h. In kind it is functional, cell-based.
The test system of another assay is MCF7. Description: Cytotoxicity against human MCF7 ATCC HTB 22 cells after 72 hrs by MTT assay. In kind it is functional, cell-based. The conditions noted are these: MCF7, 72 h.
A further assay has as its system K562. The assay is described as follows: Cytotoxicity against human K562 ATCC CCL 243 cells after 72 hrs by MTT assay. In kind it is functional, cell-based. The conditions noted are these: K562, 72 h.
Another assay deals with U-251. The assay is described as follows: Cytotoxicity against human U251 RCB 0641 cells after 72 hrs by MTT assay. The class given is functional, cell-based. The note with it: U-251, 72 h.
The subject of assay [3] is CHO. Description: Cytotoxicity against polyamine transport-deficient mutant CHO cells after 48 hrs by MTT assay. The class given is ADME, cell-based. The conditions noted are these: Cricetulus griseus.
In a further assay the test system is DU-145. Description: Cytotoxicity against human DU145 ATCC HTB 81 cells after 72 hrs by MTT assay. In kind it is functional, cell-based. The conditions noted are these: DU-145, 72 h.
The test system of assay [4] is L1210. Description: Induction of apoptosis in mouse L1210 ATCC CCL 219 cells assessed as increase in caspase 3 activity at 3 uM after 48 hrs relative to control. The class given is functional.
The test system of assay [5] is L1210. Description: Induction of apoptosis in mouse L1210 ATCC CCL 219 cells assessed as fragmented cell nuclei at 6 uM after 24 hrs by Hoechst 33342 staining. In kind it is functional.
The test system of assay [6] is L1210. The assay is described as follows: Induction of apoptosis in mouse L1210 ATCC CCL 219 cells assessed as fragmented cell nuclei at 6 uM after 48 hrs by Hoechst 33342 staining. In kind it is functional.
For assay [7], the system named is L1210. Description: Induction of apoptosis in mouse L1210 ATCC CCL 219 cells assessed as fragmented cell nuclei at 3 uM after 48 hrs by Hoechst 33342 staining. The class given is functional.
The subject of assay [8] is L1210. The assay is described as follows: Induction of apoptosis in mouse L1210 ATCC CCL 219 cells assessed as increase in caspase 3 activity at 4.5 uM after 48 hrs relative to control. The class given is functional.
The nature of assay [9]: Cytotoxicity against mouse 3LL CRL 1642 cells after 48 hrs by MTT assay. The class given is functional, cell-based.
Assay [10] has as its system L1210. Description: Induction of apoptosis in mouse L1210 ATCC CCL 219 cells assessed as increase in caspase 3 activity at 6 uM after 48 hrs relative to control. In kind it is functional.
In assay [11] the test system is L1210. Description: Induction of apoptosis in mouse L1210 ATCC CCL 219 cells assessed as fragmented cell nuclei at 4.5 uM after 48 hrs by Hoechst 33342 staining. The class given is functional.
Assay [12] concerns L1210. The assay is described as follows: Induction of apoptosis in mouse L1210 ATCC CCL 219 cells assessed as fragmented cell nuclei at 4.5 uM after 24 hrs by Hoechst 33342 staining. In kind it is functional.
Assay [13] concerns L1210. The assay is described as follows: Induction of apoptosis in mouse L1210 ATCC CCL 219 cells assessed as fragmented cell nuclei at 3 uM after 24 hrs by Hoechst 33342 staining. The class given is functional.
The test system of assay [14] is L1210. Description: Induction of apoptosis in mouse L1210 ATCC CCL 219 cells assessed as increase in caspase 3 activity at 35 uM after 48 hrs relative to control. In kind it is functional.
Assay [15] concerns L1210. Description: Induction of apoptosis in mouse L1210 ATCC CCL 219 cells assessed as fragmented cell nuclei at 26 uM after 24 hrs by Hoechst 33342 staining. The class given is functional.
In assay [16] the test system is L1210. The assay is described as follows: Induction of apoptosis in mouse L1210 ATCC CCL 219 cells assessed as fragmented cell nuclei at 17 uM after 48 hrs by Hoechst 33342 staining. In kind it is functional.
Assay [17] relates to L1210. The assay is described as follows: Induction of apoptosis in mouse L1210 ATCC CCL 219 cells assessed as fragmented cell nuclei at 26 uM after 48 hrs by Hoechst 33342 staining. In kind it is functional.
The test system of assay [18] is L1210. Description: Induction of apoptosis in mouse L1210 ATCC CCL 219 cells assessed as fragmented cell nuclei at 17 uM after 24 hrs by Hoechst 33342 staining. The class given is functional.
Assay [19] deals with L1210. The assay is described as follows: Induction of apoptosis in mouse L1210 ATCC CCL 219 cells assessed as fragmented cell nuclei at 35 uM after 24 hrs by Hoechst 33342 staining. The class given is functional.
Assay [20] concerns L1210. Description: Induction of apoptosis in mouse L1210 ATCC CCL 219 cells assessed as increase in caspase 3 activity at 17 uM after 48 hrs relative to control. In kind it is functional.
The test system of assay [21] is L1210. The assay is described as follows: Induction of apoptosis in mouse L1210 ATCC CCL 219 cells assessed as increase in caspase 3 activity at 26 uM after 48 hrs relative to control. In kind it is functional.
Assay [22] has as its system L1210. Description: Induction of apoptosis in mouse L1210 ATCC CCL 219 cells assessed as fragmented cell nuclei at 35 uM after 48 hrs by Hoechst 33342 staining. The class given is functional.
In assay [23] the test system is L1210. The assay is described as follows: Induction of apoptosis in mouse L1210 ATCC CCL 219 cells assessed as fragmented cell nuclei at 1.7 uM after 24 hrs by Hoechst 33342 staining. The class given is functional.
Assay [24] relates to L1210. The assay is described as follows: Induction of apoptosis in mouse L1210 ATCC CCL 219 cells assessed as fragmented cell nuclei at 1.7 uM after 48 hrs by Hoechst 33342 staining. In kind it is functional.
Assay [25] has as its system L1210. Description: Induction of apoptosis in mouse L1210 ATCC CCL 219 cells assessed as increase in caspase 3 activity at 1.7 uM after 48 hrs relative to control. In kind it is functional.

The record followed here is ChEMBL document CHEMBL1155015, “Synthesis and cytotoxic activities of usnic acid derivatives” (Bioorg Med Chem, 2008).

Structures are written as SMILES.

As to `NCCCCCCCCN`, the IC50 with CHO [1] and in the assay on L1210 [2] was > 100 µM each time.

In the case of `CCOC(=O)[C@H](CC(C)C)N/C(C)=C1\C(=O)C=C2Oc3c(C(C)=O)c(O)c(C)c(O)c3[C@@]2(C)C1=O`, the IC50 was > 100 µM in the assay on MCF7, 48.9 µM with L1210 [2], 60.7 µM with K562 and > 100 µM with U-251.

As to `CCOC(=O)[C@H](Cc1ccccc1)N/C(C)=C1\C(=O)C=C2Oc3c(C(C)=O)c(O)c(C)c(O)c3[C@@]2(C)C1=O`, the IC50 with MCF7 was > 100 µM; in the assay with L1210 [2], 74.4 µM; in the assay on K562, > 100 µM; in the assay on U-251, > 100 µM.

Regarding `CC(=O)c1c(O)c(C)c(O)c2c1OC1=CC(=O)/C(=C(/C)NCCCCN)C(=O)[C@@]12C`, the IC50 with CHO [1] was found to be 10.7 µM; in the assay on L1210 [2], 12 µM; in the assay with CHO [3], 12 µM.

For the molecule `CC(=O)c1c(O)c(C)c(O)c2c1OC1=CC(=O)/C(=C(/C)NCCCNCCCCNCCCN)C(=O)[C@@]12C`, the IC50 with MCF7 is 11.2 µM; with CHO [1], 48 µM; in the assay on L1210 [2], 15.3 µM; in the assay with CHO [3], 59 µM; in the assay with U-251, 4.4 µM.

Take `CC(=O)c1c(O)c(C)c(O)c2c1OC1=CC(=O)/C(=C(/C)NCCCCO)C(=O)[C@@]12C`: the IC50 with CHO [1] came out at 19.5 µM; with L1210 [2], 19.9 µM.

As to `CC(=O)c1c(O)c(C)c(O)c2c1OC1=CC(=O)/C(=C(/C)NCCCNCCCCN)C(=O)[C@@]12C`, the IC50 in the assay with MCF7 was found to be 9.9 µM; in the assay on CHO [1], 29.3 µM; in the assay on L1210 [2], 8.4 µM; in the assay with CHO [3], 28 µM; in the assay with U-251, 12.5 µM.

In the case of `CC[C@H](C)[C@H](N/C(C)=C1\C(=O)C=C2Oc3c(C(C)=O)c(O)c(C)c(O)c3[C@@]2(C)C1=O)C(=O)O`, the IC50 was > 100 µM in the assay with MCF7, 17.4 µM with L1210 [2] and 56.7 µM in the assay with K562.

Take `CCCCCCCCCN/C(C)=C1\C(=O)C=C2Oc3c(C(C)=O)c(O)c(C)c(O)c3[C@@]2(C)C1=O`: in the assay on L1210 [2], the IC50 was > 500 µM.

On to `CC(=O)c1c(O)c(C)c(O)c2c1OC1=CC(=O)/C(=C(/C)NCCCCCCCCN)C(=O)[C@@]12C`, for which the IC50 stood at 14 µM in the assay on DU-145; 5.8 µM with MCF7; 3.5 µM in the assay on CHO [1]; 2.7 µM with L1210 [2]; 8.2 µM in assay [9]; 7.2 µM with K562. Besides, the values for the IC50 in the assay with CHO [3] and with U-251 were 5 µM and 8.2 µM, respectively. The Activity with L1210 [4] worked out at 1.4; with L1210 [5], 35%; in the assay with L1210 [6] it was 48%; with L1210 [7], 37%; in the assay with L1210 [8] it was 1.7; in the assay on L1210 [10], 1.7. In addition, the Activity was determined as 42% in the assay on L1210 [11], 38% with L1210 [12] and 37% with L1210 [13].

Regarding `CC(=O)C1=C(O)C=C2Oc3c(C(C)=O)c(O)c(C)c(O)c3C2(C)C1=O` (single isomer, unassigned) [(-)-USNIC ACID], the IC50 in the assay on DU-145 turned out to be 45.9 µM; with MCF7, 51.7 µM; in the assay with L1210 [2] it was 17.4 µM; in assay [9] it was 35.1 µM; in the assay on K562, 21.8 µM; in the assay with U-251 it was 19.7 µM.

`CC(=O)C1=C(O)C=C2Oc3c(C(C)=O)c(O)c(C)c(O)c3[C@@]2(C)C1=O` [(+)-USNIC ACID]: the Activity is reported as 21.9 in the assay with L1210 [14]; 32% with L1210 [15]; 33% in the assay with L1210 [16]; 38% in the assay with L1210 [17]; 30% with L1210 [18]; 35% with L1210 [19]. In addition, the Activity was determined as 3.4 in the assay on L1210 [20], 7.4 with L1210 [21] and 42% with L1210 [22]. Moreover, the IC50 in the assay on DU-145 worked out at 57.4 µM; in the assay on MCF7, 105 µM; in the assay with CHO [1], 31.3 µM; in the assay with L1210 [2], 26.4 µM; in assay [9], 23 µM; with K562 it was 52.8 µM. The IC50 with CHO [3] was found to be 30 µM; in the assay with U-251, 19.5 µM.

Regarding `COc1cc([C@@H]2c3cc4c(cc3[C@@H](O[C@@H]3O[C@@H]5CO[C@@H](C)O[C@H]5[C@H](O)[C@H]3O)[C@H]3COC(=O)[C@H]23)OCO4)cc(OC)c1O` [ETOPOSIDE], the IC50 is 1.5 µM with DU-145; 0.5 µM with L1210 [2]; 4 µM in [9]; 4.9 µM in the assay with K562; 0.5 µM in the assay on U-251. The Activity is 47% in the assay on L1210 [23], 53% in the assay with L1210 [24] and 19.5 in the assay on L1210 [25].

For the molecule `NCCCCN` [PUTRESCINE], the IC50 in the assay on CHO [1], in the assay on L1210 [2] and with CHO [3] was > 100 µM throughout.

With `NCCCCNCCCN` [SPERMIDINE], the IC50 in the assay with CHO [1], in the assay with L1210 [2] and in the assay on CHO [3] was > 100 µM each time.

Take `NCCCNCCCCNCCCN` [SPERMINE]: the IC50 in the assay on CHO [1] is > 100 µM; with L1210 [2] it was 54.5 µM; with CHO [3], > 100 µM.
